Columns and labels:
[1] = biological target: T1, α4β7 integrin (Homo sapiens, UniProt P13612+P26010); test: α4β7 Integrin Cell Capture Assay; format: cell-based; conditions: capture of α4β7 integrin expressing RPM18866 cells on MadCAM-1 extracellular domain-coated plate
T1 construct: monitoring the capture of α4β7 integrin expressing cells; endogenous in cells; host or cells: RPMI8866
T1 sequence (P13612 34-1032): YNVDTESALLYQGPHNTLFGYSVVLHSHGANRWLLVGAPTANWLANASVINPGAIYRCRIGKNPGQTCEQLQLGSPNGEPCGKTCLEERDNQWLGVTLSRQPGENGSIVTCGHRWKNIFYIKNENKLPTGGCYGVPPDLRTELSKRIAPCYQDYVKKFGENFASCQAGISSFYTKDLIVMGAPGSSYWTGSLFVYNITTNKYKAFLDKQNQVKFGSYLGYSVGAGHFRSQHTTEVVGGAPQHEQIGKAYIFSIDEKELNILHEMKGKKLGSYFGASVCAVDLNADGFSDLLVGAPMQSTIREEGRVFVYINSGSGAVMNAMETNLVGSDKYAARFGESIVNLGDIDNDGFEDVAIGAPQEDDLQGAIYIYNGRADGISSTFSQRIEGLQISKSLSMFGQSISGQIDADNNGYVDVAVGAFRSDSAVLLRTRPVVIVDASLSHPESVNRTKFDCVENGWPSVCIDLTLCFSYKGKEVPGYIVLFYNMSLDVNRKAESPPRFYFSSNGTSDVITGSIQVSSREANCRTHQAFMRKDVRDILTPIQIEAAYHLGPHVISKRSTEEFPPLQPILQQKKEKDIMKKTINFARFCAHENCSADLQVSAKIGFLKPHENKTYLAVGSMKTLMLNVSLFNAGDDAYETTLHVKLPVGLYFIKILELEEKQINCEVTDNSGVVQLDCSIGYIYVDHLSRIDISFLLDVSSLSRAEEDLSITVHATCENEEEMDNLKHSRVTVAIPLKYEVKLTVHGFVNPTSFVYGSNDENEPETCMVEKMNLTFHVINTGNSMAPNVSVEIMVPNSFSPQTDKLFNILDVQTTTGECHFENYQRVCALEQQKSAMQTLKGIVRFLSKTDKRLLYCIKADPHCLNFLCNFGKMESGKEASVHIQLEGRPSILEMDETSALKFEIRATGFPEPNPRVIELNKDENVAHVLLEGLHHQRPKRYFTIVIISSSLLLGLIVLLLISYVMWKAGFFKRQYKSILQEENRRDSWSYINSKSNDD
T1 sequence (P26010 20-798): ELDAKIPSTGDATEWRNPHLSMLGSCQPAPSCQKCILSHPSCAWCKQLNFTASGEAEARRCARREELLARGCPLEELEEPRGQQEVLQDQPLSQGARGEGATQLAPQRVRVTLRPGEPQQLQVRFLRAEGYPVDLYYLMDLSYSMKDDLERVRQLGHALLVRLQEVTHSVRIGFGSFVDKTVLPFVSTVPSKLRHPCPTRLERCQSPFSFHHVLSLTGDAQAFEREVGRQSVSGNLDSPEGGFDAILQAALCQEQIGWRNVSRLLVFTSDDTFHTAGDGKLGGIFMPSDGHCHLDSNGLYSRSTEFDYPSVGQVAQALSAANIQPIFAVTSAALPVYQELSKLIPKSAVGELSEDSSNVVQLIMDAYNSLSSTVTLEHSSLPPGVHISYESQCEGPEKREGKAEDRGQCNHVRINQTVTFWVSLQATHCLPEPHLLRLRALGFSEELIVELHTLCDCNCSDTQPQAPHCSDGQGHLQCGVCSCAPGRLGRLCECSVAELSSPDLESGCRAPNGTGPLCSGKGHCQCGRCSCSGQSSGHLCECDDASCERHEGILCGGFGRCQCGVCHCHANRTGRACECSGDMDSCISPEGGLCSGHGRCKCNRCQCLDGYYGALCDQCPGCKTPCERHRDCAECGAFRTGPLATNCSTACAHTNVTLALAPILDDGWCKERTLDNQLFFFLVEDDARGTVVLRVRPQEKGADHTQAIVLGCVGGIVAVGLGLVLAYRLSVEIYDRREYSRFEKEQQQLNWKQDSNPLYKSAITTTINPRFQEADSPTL
Protocol: The potency of inhibitors in preventing α4β7 integrin interaction with MadCAM-1 was measured by monitoring the capture of α4β7 integrin expressing cells on a recombinant MadCAM-1 extracellular domain-coated plate.
384-well plates (Corning 3702) were coated with MadCAM-1 extracellular domain by dispensing 20 μL of MAdCAM-1 at 1.0 μg/mL per well and incubating overnight at 4° C. The plates were then washed with PBS and blocked with 3% BSA for 2 hours before being washed again.
(§1) RPM18866 cells were spun down and re-suspended in assay medium (DMEM+0.5% FBS+0.5 mM MnCl2) at a density of 0.5×10^6 cells/mL. The cells were then dispensed (60 μL/well) to a 384-well plate (Greiner 781280) that was previously spotted with 60 nL of test compound per well. The plates were incubated at 37° C. for 1 hour. 50 μL of cells were transferred to the blocked, MadCAM-1-coated plates and incubated for 30 minutes at 37° C. 10 μL of 12% glutaraldehyde containing Hoechst 33342 (0.06 mg/mL) was added to the cells (2% glutaraldehyde and 0.01 mg/mL final concentrations). The plates were incubated for 90 minutes at room temperature. The plates were then washed 3 times with 70 μL of PBS per well and imaged on a Cellomics ArrayScan instrument. The cells that were bound to the plate were counted and plotted against the compound concentration to determine the EC50 of the test compounds.

[2] = biological target: T2, α4β1 integrin (Homo sapiens, UniProt P05556+P13612); test: α4β1 Cell Capture Assay; format: cell-based; conditions: capture of α4β1 expressing Jurkat cells on VCAM-1 extracellular domain-coated plate
T2 construct: monitoring the capture of α4β1 expressing cells; endogenous in cells; host or cells: Jurkat
Protocol: The potency of inhibitors in preventing α4β1 integrin interaction with VCAM-1 was measured by monitoring the capture of α4β1 expressing cells to a recombinant VCAM-1 extracellular domain-coated plate.
384-well plates (Corning 3702) were coated with VCAM-1 extracellular domain by dispensing 20 μL of VCAM-1 at 0.5 μg/ml per well and incubating overnight at 4° C. The plates were then washed with PBS and blocked with 3% BSA for 2 hours before being washed again.
as §1, with “Jurkat cells” for “RPM18866 cells”, “0.5×10^6 cells/ml.” for “0.5×10^6 cells/mL.”, “blocked, VCAM-1-coated” for “blocked, MadCAM-1-coated”, “10 μl” for “10 μL”, “0.01 mg/ml Hoechst 33342” for “0.01 mg/mL”

T2 sequence (P05556 21-798, one chain of several): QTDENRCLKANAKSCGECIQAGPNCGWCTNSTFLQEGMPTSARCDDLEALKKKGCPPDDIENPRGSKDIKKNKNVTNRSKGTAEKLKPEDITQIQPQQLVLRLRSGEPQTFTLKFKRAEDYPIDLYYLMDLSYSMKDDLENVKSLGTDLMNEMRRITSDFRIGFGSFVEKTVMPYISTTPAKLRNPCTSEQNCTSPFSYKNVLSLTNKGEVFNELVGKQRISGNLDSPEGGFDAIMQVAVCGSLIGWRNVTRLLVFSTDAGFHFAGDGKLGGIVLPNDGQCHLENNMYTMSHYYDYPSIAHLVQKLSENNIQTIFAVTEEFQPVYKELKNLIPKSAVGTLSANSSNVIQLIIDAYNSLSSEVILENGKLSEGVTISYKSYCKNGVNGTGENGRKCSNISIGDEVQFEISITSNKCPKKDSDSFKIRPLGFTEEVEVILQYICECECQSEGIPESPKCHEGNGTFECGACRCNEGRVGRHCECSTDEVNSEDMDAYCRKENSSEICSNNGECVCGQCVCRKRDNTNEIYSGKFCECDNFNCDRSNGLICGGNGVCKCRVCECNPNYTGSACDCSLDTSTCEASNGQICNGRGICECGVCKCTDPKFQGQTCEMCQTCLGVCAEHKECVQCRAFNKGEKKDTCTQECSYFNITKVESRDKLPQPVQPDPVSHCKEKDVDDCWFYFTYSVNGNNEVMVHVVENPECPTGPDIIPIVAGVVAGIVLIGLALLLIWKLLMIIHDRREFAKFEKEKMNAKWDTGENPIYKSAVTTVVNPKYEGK

SMILES	EC50 ([1]; Table 2) [nM]	EC50 ([2]; Table 2) [nM]	EC50 ([1]; Table 1) [nM]	EC50 ([2]; Table 1) [nM]
Cc1cc(N2CCOC[C@@H]2C(F)(F)F)cc(F)c1C(=O)N[C@@H](Cc1ccc(-n2c(=O)c3ccncc3n(C)c2=O)c(C(F)(F)F)c1)C(=O)O (atropisomer, axis not shown) [Example 89]	0.6	2.3		
Cc1cc(N2CCOC[C@@H]2C(F)(F)F)cc(F)c1C(=O)N[C@@H](Cc1ccc(-n2c(=O)c3ccncc3n(C)c2=O)c(C(F)(F)F)c1)C(=O)O (atropisomer, axis not shown) [Example 90]	0.7	9.7		
Cc1cc(N2CCOC[C@@H]2C(F)(F)F)cc(F)c1C(=O)N[C@@H](Cc1ccc(-n2c(=O)c3ccncc3n(C)c2=O)c(OC(F)(F)F)c1)C(=O)O (atropisomer, axis not shown) [Example 92]	0.2	1.3		
Cc1cc(N2CCOC[C@@H]2C(F)(F)F)cc(F)c1C(=O)N[C@@H](Cc1ccc(-n2c(=O)c3ccncc3n(C)c2=O)c(OC(F)(F)F)c1)C(=O)O (atropisomer, axis not shown) [Example 93]	0.4	25.8		
CC[C@@H](Nc1cc(F)c(C(=O)N[C@@H](Cc2ccc(-c3c(C(F)(F)F)cc(C)n(C)c3=O)cc2)C(=O)O)c(F)c1)C(F)(F)F [Example 1, (S)-2-(2,6-difluoro-4-(((R)-1,1,1-trifluorobutan-2-yl)amino)benzamido)-3-(4-(1,6-dimethyl-2-oxo-4-(trifluoromethyl)-1,2-dihydropyridin-3-yl)phenyl)propanoic acid]			1.4	10.3
CC[C@@H](Nc1cc(F)c(C(=O)N[C@@H](Cc2ccc(-c3c(C(F)(F)F)cc(=O)n(C)c3C)cc2)C(=O)O)c(F)c1)C(F)(F)F [Example 2, (S)-2-(2,6-difluoro-4-(((R)-1,1,1-trifluorobutan-2-yl)amino)benzamido)-3-(4-(1,2-dimethyl-6-oxo-4-(trifluoromethyl)-1,6-dihydropyridin-3-yl)phenyl)propanoic acid]			13.6	905
Cc1c(C(F)(F)F)cn(C)c(=O)c1-c1ccc(C[C@H](NC(=O)c2c(F)cc(N3CCOC[C@@H]3C(F)(F)F)cc2F)C(=O)O)cc1 [Example 4, (S)-2-(2,6-difluoro-4-((R)-3-(trifluoromethyl)morpholino)benzamido)-3-(4-(1,4-dimethyl-2-oxo-5-(trifluoromethyl)-1,2-dihydropyridin-3-yl)phenyl)propanoic acid]			1.2	63.7
CC[C@@H](Nc1cc(F)c(C(=O)N[C@@H](Cc2ccc(-n3c(=O)c4ccncc4n(C)c3=O)nc2)C(=O)O)c(F)c1)C(F)(F)F [Example 9, (S)-2-(2,6-difluoro-4-(((R)-1,1,1-trifluorobutan-2-yl)amino)benzamido)-3-(6-(1-methyl-2,4-dioxo-1,4-dihydropyrido[3,4-d]pyrimidin-3(2H)-yl)pyridin-3-yl)propanoic acid]			1.6	117
CC[C@@H](Nc1cc(C)c(C(=O)N[C@@H](Cc2ccc(-n3c(=O)c4ccncc4n(C)c3=O)nc2)C(=O)O)c(F)c1)C(F)(F)F [Example 11, (S)-2-(2-fluoro-6-methyl-4-(((R)-1,1,1-trifluorobutan-2-yl)amino)benzamido)-3-(6-(1-methyl-2,4-dioxo-1,4-dihydropyrido[3,4-d]pyrimidin-3(2H)-yl)pyridin-3-yl)propanoic acid]			0.5	30.1

Other lines, results leading:

EC50 ([1]; Table 2) [nM]	EC50 ([2]; Table 2) [nM]	EC50 ([1]; Table 1) [nM]	EC50 ([2]; Table 1) [nM]	SMILES
		0.5	18.5	Cc1cc(C(F)(F)F)c(-c2ccc(C[C@H](NC(=O)c3c(F)cc(N4CCOC[C@@H]4C(F)(F)F)cc3F)C(=O)O)cc2)c(=O)n1C [Example 3, (S)-2-(2,6-difluoro-4-((R)-3-(trifluoromethyl)morpholino)benzamido)-3-(4-(1,6-dimethyl-2-oxo-4-(trifluoromethyl)-1,2-dihydropyridin-3-yl)phenyl)propanoic acid]
		0.2	16.6	Cc1cc(C[C@H](NC(=O)c2c(C)cc(N3CCOC[C@@H]3C(F)(F)F)cc2F)C(=O)O)ccc1-c1c(C(F)(F)F)cc(C)n(C)c1=O [Example 5, (S)-3-(4-(1,6-dimethyl-2-oxo-4-(trifluoromethyl)-1,2-dihydropyridin-3-yl)-3-methylphenyl)-2-(2-fluoro-6-methyl-4-((R)-3-(trifluoromethyl)morpholino)benzamido)propanoic acid]
		0.3	9.9	Cc1cc(C(F)(F)F)c(-c2ccc(C[C@H](NC(=O)c3c(F)cc(N4CCOC[C@@H]4C(F)(F)F)cc3F)C(=O)O)cc2F)c(=O)n1C [Example 6, (S)-2-(2,6-difluoro-4-((R)-3-(trifluoromethyl)morpholino)benzamido)-3-(4-(1,6-dimethyl-2-oxo-4-(trifluoromethyl)-1,2-dihydropyridin-3-yl)-3-fluorophenyl)propanoic acid]
		0.5	15.3	Cc1cc(N2CCOC[C@@H]2C(F)(F)F)cc(F)c1C(=O)N[C@@H](Cc1ccc(-c2nc(C)c(C)n(C)c2=O)c(Cl)c1)C(=O)O [Example 7, (S)-3-(3-chloro-4-(4,5,6-trimethyl-3-oxo-3,4-dihydropyrazin-2-yl)phenyl)-2-(2-fluoro-6-methyl-4-((R)-3-(trifluoromethyl)morpholino)benzamido)propanoic acid]
